Assay results: US6555538B2, “5-arylsulfonyl-imidazo[1′,2′:1,6]pyrido[2,3-b]pyrazine-6-amines and related compounds” (Pfizer Inc, priority 1999, dated 2003)

| melting point [°C] | SMILES |
| --- | --- |
| 267.5 to 268.5 | CCc1ccc(S(=O)(=O)c2c(N)c3nccn3c3nccnc23)cc1 [Example 3, 5-[(4-ethylphenyl)sulfonyl]-imidazo[1′,2′:1,6]pyrido[2,3-b]pyrazin-6-amine] |
| > 300 | Nc1c(S(=O)(=O)c2ccc(O)cc2)c2nccnc2n2ccnc12 [Example 8, 5-[(4-Hydroxyphenyl)sulfonyl]-imidazo[1′,2′:1,6]pyrido[2,3-b]pyrazin-6-amine] |
| 294 to 295 | Cc1ccc(S(=O)(=O)c2c(N)c3nccn3c3nccnc23)cc1 [Example 1, 5-[(4-Methylphenyl)sulfonyl]-imidazo[1′,2′:1,6]pyrido[2,3-b]pyrazin-6-amine] |

Continued, compound first:

| SMILES | melting point [°C] |
| --- | --- |
| Cc1ccc(S(=O)(=O)c2c(N)c3nncn3c3nccnc23)cc1 [Example 2, 5-[(4-methylphenyl)sulfonyl]-[1,2,4]triazolo[4′,3′:1,6]pyrido[2,3-b]pyrazin-6-amine] | > 300 |
| CCCc1ccc(S(=O)(=O)c2c(N)c3nccn3c3nccnc23)cc1 [Example 5, 5-[(4-propylphenyl)sulfonyl]-imidazo[1′,2′:1,6]pyrido[2,3-b]pyrazin-6-amine] | 231 to 232 |
| COc1ccc(S(=O)(=O)c2c(N)c3nccn3c3nccnc23)cc1 [Example 6, 5-[(4-methoxyphenyl)sulfonyl]-imidazo[1′,2′:1,6]pyrido[2,3-b]pyrazin-6-amine] | 269 to 270 |
| CC(C)c1ccc(S(=O)(=O)c2c(N)c3nccn3c3nccnc23)cc1 [Example 4, 5-[(4-isopropylphenyl)sulfonyl]-imidazo[1′,2′:1,6]pyrido[2,3-b]pyrazin-6-amine] | 241 to 244 |
